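The compound was tested at five concentrations on cells cultured in 96-well plates, with a 48-hour exposure period. GI50 = concentration required for 50% inhibition of growth. Definition used: TGI = concentration required for complete inhibition of growth.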
Key:
Assay in all cases: NCI anticancer screen, dose series, 48 h
M14 melanoma = system: M14 melanoma
MDA-MB-435 = system: MDA-MB-435
NCI-H23 lung = system: NCI-H23 lung
CAKI-1 renal = system: CAKI-1 renal
SR leukemia = system: SR leukemia
NCI/ADR-RES ovarian = system: NCI/ADR-RES ovarian
CCRF-CEM leukemia = system: CCRF-CEM leukemia
HOP-92 NSCLC = system: HOP-92 NSCLC
OVCAR-8 ovarian = system: OVCAR-8 ovarian
DU-145 prostate = system: DU-145 prostate
SK-MEL-5 melanoma = system: SK-MEL-5 melanoma
PC-3 prostate = system: PC-3 prostate
A498 renal = system: A498 renal
HOP-62 NSCLC = system: HOP-62 NSCLC
NCI-H226 lung = system: NCI-H226 lung
MALME-3M melanoma = system: MALME-3M melanoma
SF-295 CNS = system: SF-295 CNS
EKVX NSCLC = system: EKVX NSCLC
IGROV1 ovarian = system: IGROV1 ovarian
UO-31 renal = system: UO-31 renal
RPMI-8226 leukemia = system: RPMI-8226 leukemia
OVCAR-5 ovarian = system: OVCAR-5 ovarian
SW-620 colon = system: SW-620 colon
786-0 renal = system: 786-0 renal
COLO 205 colon = system: COLO 205 colon
OVCAR-3 ovarian = system: OVCAR-3 ovarian
KM12 colon = system: KM12 colon
HCT-15 colon = system: HCT-15 colon
LOX IMVI melanoma = system: LOX IMVI melanoma
HL-60(TB) leukemia = system: HL-60(TB) leukemia
U251 CNS = system: U251 CNS
NCI-H460 lung = system: NCI-H460 lung
HS 578T breast = system: HS 578T breast
SNB-75 CNS = system: SNB-75 CNS
OVCAR-4 ovarian = system: OVCAR-4 ovarian
TK-10 renal = system: TK-10 renal
SNB-19 CNS = system: SNB-19 CNS
HCC-2998 colon = system: HCC-2998 colon
UACC-257 melanoma = system: UACC-257 melanoma
UACC-62 melanoma = system: UACC-62 melanoma
T-47D breast = system: T-47D breast
NCI-H522 lung = system: NCI-H522 lung
MDA-MB-231 breast = system: MDA-MB-231 breast
HCT-116 colon = system: HCT-116 colon
RXF 393 renal = system: RXF 393 renal
A549 NSCLC = system: A549 NSCLC
MOLT-4 leukemia = system: MOLT-4 leukemia
SK-MEL-28 melanoma = system: SK-MEL-28 melanoma
BT-549 breast = system: BT-549 breast
HT29 colon = system: HT29 colon
SF-268 CNS = system: SF-268 CNS
ACHN renal = system: ACHN renal
SK-MEL-2 melanoma = system: SK-MEL-2 melanoma
K-562 leukemia = system: K-562 leukemia
SK-OV-3 ovarian = system: SK-OV-3 ovarian
MCF7 breast = system: MCF7 breast
SF-539 CNS = system: SF-539 CNS
SN12C renal = system: SN12C renal

In the case of Nc1ncnc2c1ncn2CC(CO)CC(c1ccccc1)P(=O)(O)O (stereo not given), the TGI (M14 melanoma) is reported as 1640 nM.

Compound OC1CN2CCS[C@H]2C(O)C1O (stereo not given in full) has a TGI (MDA-MB-435) of over 100000 nM, a TGI (NCI-H23 lung) of over 100000 nM and a TGI (CAKI-1 renal) of over 100000 nM. For the same compound, the TGI (SR leukemia) was over 100000 nM, the TGI (NCI/ADR-RES ovarian) was over 100000 nM and the TGI (CCRF-CEM leukemia) was over 100000 nM. The TGI (HOP-92 NSCLC) was over 100000 nM, the TGI (OVCAR-8 ovarian) was over 100000 nM and the TGI (DU-145 prostate) was over 100000 nM. For the same compound, the TGI (SK-MEL-5 melanoma) was over 100000 nM, the TGI (PC-3 prostate) was over 100000 nM and the TGI (A498 renal) was over 100000 nM. It also gave a TGI (HOP-62 NSCLC) of over 100000 nM, a TGI (NCI-H226 lung) of over 100000 nM and a TGI (MALME-3M melanoma) of over 100000 nM. For the same compound, the TGI (SF-295 CNS) was over 100000 nM, the TGI (EKVX NSCLC) was over 100000 nM and the TGI (IGROV1 ovarian) was over 100000 nM. The TGI (UO-31 renal) was over 100000 nM, the TGI (RPMI-8226 leukemia) was over 100000 nM and the TGI (OVCAR-5 ovarian) was over 100000 nM. For the same compound, the TGI (SW-620 colon) was over 100000 nM, the TGI (786-0 renal) was over 100000 nM and the TGI (COLO 205 colon) was over 100000 nM. It also gave a TGI (OVCAR-3 ovarian) of over 100000 nM, a TGI (KM12 colon) of over 100000 nM and a TGI (HCT-15 colon) of over 100000 nM. The TGI (LOX IMVI melanoma) was over 100000 nM, the TGI (HL-60(TB) leukemia) was over 100000 nM and the TGI (U251 CNS) was over 100000 nM. For the same compound, the TGI (NCI-H460 lung) was over 100000 nM, the TGI (HS 578T breast) was over 100000 nM and the TGI (SNB-75 CNS) was over 100000 nM. For the same compound, the TGI (OVCAR-4 ovarian) was over 100000 nM, the TGI (TK-10 renal) was over 100000 nM and the TGI (SNB-19 CNS) was over 100000 nM. The TGI (HCC-2998 colon) was over 100000 nM, the TGI (UACC-257 melanoma) was over 100000 nM and the TGI (UACC-62 melanoma) was over 100000 nM. It also gave a TGI (M14 melanoma) of over 100000 nM, a TGI (T-47D breast) of over 100000 nM and a TGI (NCI-H522 lung) of over 100000 nM. The TGI (MDA-MB-231 breast) was over 100000 nM, the TGI (HCT-116 colon) was over 100000 nM and the TGI (RXF 393 renal) was over 100000 nM. The TGI (A549 NSCLC) was over 100000 nM, the TGI (MOLT-4 leukemia) was over 100000 nM and the TGI (SK-MEL-28 melanoma) was over 100000 nM. It also gave a TGI (BT-549 breast) of over 100000 nM, a TGI (HT29 colon) of over 100000 nM and a TGI (SF-268 CNS) of over 100000 nM. The TGI (ACHN renal) was over 100000 nM, the TGI (SK-MEL-2 melanoma) was over 100000 nM and the TGI (K-562 leukemia) was over 100000 nM. It also gave a TGI (SK-OV-3 ovarian) of over 100000 nM.

Work on COc1cc(C(=O)c2cc3c(cc2C)OCO3)cc(OC)c1OC yielded a GI50 (NCI-H23 lung) of 319 nM, a TGI (NCI-H23 lung) of over 100000 nM and a GI50 (CAKI-1 renal) of 208 nM. For the same compound, the TGI (CAKI-1 renal) was over 100000 nM, the GI50 (SR leukemia) was 41.7 nM and the TGI (SR leukemia) was over 100000 nM. For the same compound, the GI50 (NCI/ADR-RES ovarian) was 226 nM, the TGI (NCI/ADR-RES ovarian) was over 100000 nM and the GI50 (CCRF-CEM leukemia) was 43.4 nM. The TGI (CCRF-CEM leukemia) was over 100000 nM, the GI50 (HOP-92 NSCLC) was 85.5 nM and the TGI (HOP-92 NSCLC) was 48600 nM. It also gave a GI50 (OVCAR-8 ovarian) of 317 nM, a TGI (OVCAR-8 ovarian) of over 100000 nM and a GI50 (MCF7 breast) of 36.6 nM. For the same compound, the TGI (MCF7 breast) was over 100000 nM, the GI50 (SK-MEL-5 melanoma) was 45.4 nM and the TGI (SK-MEL-5 melanoma) was 1740 nM. The GI50 (PC-3 prostate) was 141 nM, the TGI (PC-3 prostate) was over 100000 nM and the GI50 (A498 renal) was 32.2 nM. For the same compound, the TGI (A498 renal) was 199 nM, the GI50 (HOP-62 NSCLC) was 170 nM and the TGI (HOP-62 NSCLC) was over 100000 nM. For the same compound, the GI50 (NCI-H226 lung) was 554 nM, the TGI (NCI-H226 lung) was over 100000 nM and the GI50 (SF-295 CNS) was 102 nM. For the same compound, the TGI (SF-295 CNS) was over 100000 nM, the GI50 (IGROV1 ovarian) was 371 nM and the TGI (IGROV1 ovarian) was over 100000 nM. It also gave a GI50 (UO-31 renal) of 624 nM, a TGI (UO-31 renal) of over 100000 nM and a GI50 (RPMI-8226 leukemia) of 284 nM. For the same compound, the TGI (RPMI-8226 leukemia) was over 67300 nM, the GI50 (OVCAR-5 ovarian) was 439 nM and the TGI (OVCAR-5 ovarian) was over 100000 nM. It also gave a GI50 (SW-620 colon) of 60.8 nM, a TGI (SW-620 colon) of over 100000 nM and a GI50 (786-0 renal) of 322 nM. The TGI (786-0 renal) was over 100000 nM, the GI50 (COLO 205 colon) was 58.4 nM and the TGI (COLO 205 colon) was 413 nM. The GI50 (OVCAR-3 ovarian) was 76.5 nM, the GI50 (KM12 colon) was 70 nM and the TGI (KM12 colon) was over 100000 nM. It also gave a GI50 (HCT-15 colon) of 52.8 nM, a TGI (HCT-15 colon) of over 100000 nM and a GI50 (LOX IMVI melanoma) of 551 nM. It also gave a TGI (LOX IMVI melanoma) of over 100000 nM, a GI50 (HL-60(TB) leukemia) of 32.9 nM and a TGI (HL-60(TB) leukemia) of 152 nM. The GI50 (U251 CNS) was 158 nM, the TGI (U251 CNS) was over 100000 nM and the GI50 (NCI-H460 lung) was 124 nM. The TGI (NCI-H460 lung) was over 33200 nM, the GI50 (HS 578T breast) was 174 nM and the TGI (HS 578T breast) was over 100000 nM. For the same compound, the GI50 (SNB-75 CNS) was 42.9 nM, the TGI (SNB-75 CNS) was over 100000 nM and the GI50 (OVCAR-4 ovarian) was 830 nM. For the same compound, the TGI (OVCAR-4 ovarian) was over 100000 nM, the GI50 (TK-10 renal) was 34200 nM and the TGI (TK-10 renal) was over 100000 nM. It also gave a TGI (SNB-19 CNS) of over 100000 nM, a GI50 (HCC-2998 colon) of 218 nM and a TGI (HCC-2998 colon) of over 100000 nM. The GI50 (UACC-257 melanoma) was 91700 nM, the TGI (UACC-257 melanoma) was over 100000 nM and the GI50 (UACC-62 melanoma) was 247 nM. For the same compound, the TGI (UACC-62 melanoma) was over 100000 nM, the GI50 (SF-539 CNS) was 61.7 nM and the TGI (SF-539 CNS) was 376 nM. It also gave a GI50 (M14 melanoma) of 67.1 nM, a TGI (M14 melanoma) of over 100000 nM and a GI50 (T-47D breast) of 923 nM. It also gave a TGI (T-47D breast) of over 100000 nM, a GI50 (NCI-H522 lung) of 260 nM and a TGI (NCI-H522 lung) of 3900 nM. The GI50 (MDA-MB-231 breast) was 147 nM, the TGI (MDA-MB-231 breast) was over 100000 nM and the GI50 (HCT-116 colon) was 68.2 nM. It also gave a TGI (HCT-116 colon) of over 100000 nM, a GI50 (RXF 393 renal) of 51.5 nM and a TGI (RXF 393 renal) of over 100000 nM. The GI50 (A549 NSCLC) was 125 nM, the TGI (A549 NSCLC) was over 100000 nM and the GI50 (MOLT-4 leukemia) was 117 nM. For the same compound, the TGI (MOLT-4 leukemia) was over 100000 nM, the GI50 (SK-MEL-28 melanoma) was 87.9 nM and the TGI (SK-MEL-28 melanoma) was over 100000 nM. It also gave a GI50 (BT-549 breast) of 211 nM, a TGI (BT-549 breast) of over 100000 nM and a GI50 (HT29 colon) of 105 nM. It also gave a TGI (HT29 colon) of over 100000 nM, a GI50 (SF-268 CNS) of 360 nM and a TGI (SF-268 CNS) of over 100000 nM. For the same compound, the GI50 (ACHN renal) was 289 nM, the TGI (ACHN renal) was over 100000 nM and the GI50 (SK-MEL-2 melanoma) was 734 nM. For the same compound, the TGI (SK-MEL-2 melanoma) was over 100000 nM, the GI50 (K-562 leukemia) was 51 nM and the TGI (K-562 leukemia) was over 100000 nM. It also gave a GI50 (SN12C renal) of 289 nM, a TGI (SN12C renal) of over 100000 nM and a GI50 (SK-OV-3 ovarian) of 87.4 nM. For the same compound, the TGI (SK-OV-3 ovarian) was over 100000 nM.

Compound COc1cc(CC2C(=O)NC(=O)NC2=O)ccc1OCc1ccccc1 has a GI50 (HS 578T breast) of 91.3 µg/mL, a GI50 (SNB-75 CNS) of 38 µg/mL and a GI50 (OVCAR-4 ovarian) of 59.8 µg/mL.

— PubChem BioAssay (NCI)
